How the values were obtained:
Assay type in all cases: cell-based
[1] = molecular target: T1, long form of human GPR120 (Homo sapiens, UniProt Q5NUL3); assay: Human GPR120 DiscoveRx PathHunter β-Arrestin assay, Procedure β-arrestin A; conditions: PathHunter CHO-K1 GPR120 β-Arrestin cell line, 3000 cells per well
T1 construct: host or cells: PathHunter CHO-K1 GPR120 β-Arrestin Cell Line
Description: The binding of an agonist (medium/long chain fatty acids or small molecule agonists) to the G-protein-coupled receptor GPR120 activates phospholipase C, leading to release of intracellular Ca^+2 through the generation of inositol 1,4,5-trisphosphate (InsP3 or IP3). GPR120 activation can also trigger intracellular signaling via recruitment of β-Arrestin. In the present method, agonist-induced activation of the human GPR120 receptor is monitored through the use of PathHunter CHO-K1 GPR120 β-Arrestin Cell Line engineered by DiscoveRx, as detailed below. The cell lines are designed to co-express both the ProLink/Enzyme Donor (PK)-tagged GPCR and the Enzyme […] (EA)-tagged Beta-Arrestin fusion proteins. Upon GPR120 receptor stimulation/activation, the EA-tagged β-Arrestin portion is translocated to the tagged receptor, where the two enzyme fragments are brought within close proximity. Under these conditions, these fragments can interact and form an active Beta-gal enzyme complex through Enzyme Fragment Complementation (EFC). This active Beta-gal complex can enzymatically hydrolyse the substrate to produce a detectable light signal; therefore, activation as a function of agonist concentration can be expressed as an EC50 value to determine relative compound activities. This in vitro assay therefore serves to assess compound agonist activity of the GPR120.
In Procedure β-arrestin A, the cell used were PathHunter CHO-K1 GPR120 β-Arrestin Cell Line, expressing the long form of human GPR120 (Genbank accession number NM_181745), with 3000 cells per well.
The selected CHO-K1 GPR120 β-Arrestin cells were cultured in Ham's F12 media supplemented with 10% fetal bovine serum (FBS), 1% Glutamine, 1×p/s, 800 μg/ml G418 and 300 μg/ml Hygromycin B (for selection). Cell stocks were maintained and grown in a sub-confluent state using standard cell culture procedures. The day before the experiment, the cells were harvested with non-enzymatic cell dissociation buffer and re-suspended in complete growth media at the desired concentration. A Corning 384-plate was then seeded with the proper number of cells in a volume of 25 μL, per well. The seeded plates were incubated overnight at 37° C.
On the day of the experiment, the Assay Buffer containing (a) HBSS with Ca^++ and Mg^++, (b) 20 mM HEPES, and (c) 0.1% BSA stabilizer (pH 7.4) was prepared. The growth medium was gently removed from the cell plates and 20 μL of Assay Buffer added to each well. The plate was then incubated at 37° C. for 60 mins. Test compounds were serially diluted in Assay Buffer to desired concentrations (more particularly, to one or more of the following μM concentrations: 25 μM, 12.5 μM, 6.25 μM, 3.125 μM, 1.562 μM, 0.781 μM, 0.391 μM, 0.195 μM, 0.098 μM, 0.049 μM, 0.024 μM, 0.012 μM). Five μl of compound dilution was then added to each well and the plate incubated at 37° C. for 90 mins. The detection reagents were prepared according to the manufacture's instruction. Twelve μL of the detection reagents were added to each well and the plate incubated at room temperature for 60 mins.
The plates were read on an EnVision instrument, using Protocol name: Luminescence, Plate type: 384 Costar, Measurement height: 3 mm, Measurement time: 1 s, Aperture: 384 Plate aperture. The % activity relative to the positive control was calculated using the following equation:
The % Activity values were plotted versus the concentration of test compound and fitted to a sigmoidal dose-response curve with a Hill slope=1 (fixed value) using nonlinear regression with GraphPad Prism 5.0 to calculate the EC50 values. The Fitting Equation was: Y=Bottom+(Top−Bottom)/(1+10^((LogEC50−X)*HillSlope)), where X is the log of the concentration and Y is the response.

Human GPR120 short form [2] = molecular target: T2, Human GPR120 short form (Homo sapiens, UniProt Q5NUL3); assay: Human GPR120 calcium flux assay, Procedure Calcium A; conditions: HEK-293 cells expressing human GPR120 short form, 2500 cells/well, FLIPR
T2 construct: expressed in transfected cells
T2 sequence (Q5NUL3 1-361): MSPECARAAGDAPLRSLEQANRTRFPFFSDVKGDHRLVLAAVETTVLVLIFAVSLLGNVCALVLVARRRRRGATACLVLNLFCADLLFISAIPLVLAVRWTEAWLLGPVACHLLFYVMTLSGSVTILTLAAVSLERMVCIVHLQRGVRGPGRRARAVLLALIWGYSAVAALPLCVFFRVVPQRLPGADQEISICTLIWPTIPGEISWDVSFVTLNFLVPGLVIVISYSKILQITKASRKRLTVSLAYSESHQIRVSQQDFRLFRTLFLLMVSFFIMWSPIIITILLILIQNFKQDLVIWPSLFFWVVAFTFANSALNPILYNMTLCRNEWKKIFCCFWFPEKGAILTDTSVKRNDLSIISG
Description: (§1) This in vitro assay serves to assess test compound agonist activity against the short splice variant (SVS with Accession number NM_001195755.1 confirmed by sequencing data) of the GPR120 receptor. The Human Short splice variant #2 (NM_001195755.1) is missing an in-frame coding exon compared to variant 1 (the Human Long splice variant NM_181745.3), resulting in a shorter isoform (GPR120-S) lacking a 16 aa protein segment compared to isoform GPR120-L. The assay platform utilizes HEK-293 cells stably transfected to express the Human GPR120 short form. These cells are first loaded with the Ca^+2 sensitive dye, Fluo-4 NW. Upon stimulation, intracellular released Ca^+2 can bind to the dye and alter its fluorescence intensity. This increase in fluorescence signal, and thus the flux in intracellular [Ca^2+], is detected and quantitated by fluorescence imaging using a FLIPR reader. The effect of the agonist is measured as a function of concentration and used to calculate an EC50 based upon a response curve.
In this procedure 2500 cells/well were employed.
(§2) A Human GPR120 clone (Genbank accession number NM_001195755.1) was placed into the pcDNA3.1 mammalian expression vector carrying the neomycin resistance gene. A stable mammalian cell was generated by placing the above clone into a HEK293 background. Clonal cells responding to long chain fatty acids had expression levels of GPR120 confirmed by RT-qPCR. Human HEK-GPR120 cells were cultured in Dulbecco's Modified Eagle's Medium (DMEM)/F12 medium supplemented with 10% fetal bovine serum (FBS), 1% L-Glutamine and 1% penicillin/streptomycin and 0.5 mg/ml G-418. Cells were split 2 times a week to keep the cells in the log-phase growth.
(§3) In preparation for the assay, HEK cells stably transfected with Human GPR120 (2.5K cells per well in 25 uL growth medium) were seeded into 384-well plates and then incubated overnight (37° C., 5% CO2). The next day, the media was changed to 20 μl assay buffer and the cell starved for 1 h at 37° C. The dye loading solution (2× dye) was prepared using 10 ml assay buffer, 100 μl of 250 mM probenecid, 1 bottle of Component A, and 20 μl of dye in DMSO. Twenty μl of the 2× dye loading buffer was then added to each well. The plates were incubated at 37° C. for 30 min, then at room temperature for an additional 15 minutes, before performing the assay on FLIPR.
(§4) Test compounds were prepared in assay buffer (2 μl of test compound+198 μl assay buffer, final DMSO in assay plate is 0.2%) at the desired concentration, more particularly at 100 μM, 50 μM, 25 μM, 12.5 μM, 6.25 μM, 3.125 μM, 1.562 μM, 0.781 μM, 0.391 μM, 0.195 μM, 0.098 μM, 0.049 μM, 0.024 μM and 0.012 μM.
(§5) The assay was performed on a FLIPR plate reader using the following parameters. Baseline was read for 10 seconds at 1 sec intervals. The program was set to transfer 10 μL of ligand from compound plate to cell plate after baseline reading. Aspiration was executed at: 10 μl/sec speed, 4.6 μl height; Dispensing was executed at: 30 μl/sec speed, 45 μl height. After compound addition, each well was read for 300 sec, with measurements collected at 1 sec intervals.
(§6) The kinetic data from the FLIPR was based upon a 5 minute window for data collection. The fluorescence of each sample well was used for individual calculations of a normalized RFU value, which was defined as maximum response minus the minimum response. The normalized fluorescence reading (RFU) was calculated as follows: RFU=Fmax−Fmin
(§7) The data were fitted to a sigmoidal dose-response curve with a variable Hill slope (<2) using nonlinear regression with GraphPad Prism 5.0 to calculate the EC50 values. The Fitting Equation was: Y=Bottom+(Top−Bottom)/(1+10^((LogEC50−X)*HillSlope)), where X is the log of the concentration and Y is the response.

Human GPR120 short form [3] = molecular target: T2, Human GPR120 short form; assay: Human GPR120 calcium flux assay, Procedure Calcium B; conditions: HEK-293 cells expressing human GPR120 short form, 4200 cells/well, FLIPR
Description: as §1
In this procedure 4200 cells/well were employed.
as §2, §3, §4, §5, §6, §7

T1 sequence (Q5NUL3 1-377 isoform Q5NUL3-1): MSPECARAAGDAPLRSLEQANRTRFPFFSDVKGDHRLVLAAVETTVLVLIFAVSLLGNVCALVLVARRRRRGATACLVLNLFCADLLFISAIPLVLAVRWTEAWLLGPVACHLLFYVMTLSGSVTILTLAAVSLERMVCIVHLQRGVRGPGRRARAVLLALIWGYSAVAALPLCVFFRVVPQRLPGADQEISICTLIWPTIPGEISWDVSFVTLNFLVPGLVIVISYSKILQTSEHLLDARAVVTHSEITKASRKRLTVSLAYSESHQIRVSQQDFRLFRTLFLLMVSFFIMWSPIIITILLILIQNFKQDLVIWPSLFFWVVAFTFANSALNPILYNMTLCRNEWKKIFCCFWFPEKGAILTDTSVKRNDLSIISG
T1 sequence (P32121 whole entry partner): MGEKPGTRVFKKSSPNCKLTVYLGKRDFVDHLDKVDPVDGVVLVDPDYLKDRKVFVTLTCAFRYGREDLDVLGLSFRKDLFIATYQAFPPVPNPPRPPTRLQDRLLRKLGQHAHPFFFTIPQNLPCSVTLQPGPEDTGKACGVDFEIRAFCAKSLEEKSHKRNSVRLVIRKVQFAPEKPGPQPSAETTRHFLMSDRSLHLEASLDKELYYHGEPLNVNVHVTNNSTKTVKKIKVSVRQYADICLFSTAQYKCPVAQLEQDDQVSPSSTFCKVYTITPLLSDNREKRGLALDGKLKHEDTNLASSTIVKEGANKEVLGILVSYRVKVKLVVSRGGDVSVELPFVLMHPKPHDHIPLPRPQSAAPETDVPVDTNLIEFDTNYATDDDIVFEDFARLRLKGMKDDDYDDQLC

SMILES	EC50 [1] [nM]	EC50 (Human GPR120 short form [2]) [nM]	EC50 (Human GPR120 short form [3]) [nM]
OCCCc1ccc(OCc2c(Cl)ccn2-c2ccc(Cl)cc2)c(F)c1F [Compound 10, 3-(4-{[3-Chloro-1-(4-chlorophenyl)-1H-pyrrol-2-yl]methoxy}-2,3-difluorophenyl)propan-1-ol]	258	1090	740
O=C(O)CCc1ccc(OCc2c(Cl)ccn2-c2ccc(Cl)cc2)c(F)c1F [Compound 11, 3-(4-{[3-chloro-1-(4-chlorophenyl)-1H-pyrrol-2-yl]methoxy}-2,3-difluorophenyl)propanoic acid]	859	934	161
Cc1c(CCC(=O)O)ccc(OCc2c(C(F)(F)F)ccn2-c2ccc(Cl)cc2)c1C [Compound 15, 3-(4-{[1-(4-Chlorophenyl)-3-(trifluoromethyl)-1H-pyrrol-2-yl]methoxy}-2,3-dimethylphenyl)propanoic acid]	1100	993	88
O=C(O)CCc1ccc(OCc2c(C(F)(F)F)ccn2-c2ccc(Cl)cc2)c(F)c1F [Compound 16, 3-(4-{[1-(4-Chlorophenyl)-3-(trifluoromethyl)-1H-pyrrol-2-yl]methoxy}-2,3-difluorophenyl)propanoic acid]	639	836	91
Cc1c(CCCO)ccc(OCc2c(C(F)(F)F)ccn2-c2ccc(Cl)cc2)c1C [Compound 17, 3-(4-{[1-(4-Chlorophenyl)-3-(trifluoromethyl)-1H-pyrrol-2-yl]methoxy}-2,3-dimethylphenyl)propan-1-ol]	238	1090	533
Cc1c(CCCO)ccc(OCc2c(C(F)(F)F)ccn2-c2ccccc2)c1C [Compound 19, 3-(2,3-Dimethyl-4-{[1-phenyl-3-(trifluoromethyl)-1H-pyrrol-2-yl]methoxy}phenyl)propan-1-ol]	283	843	261
OCCCc1ccc(OCc2c(C(F)(F)F)ccn2-c2ccc(Br)cc2)c(F)c1F [Compound 21, 3-(4-{[1-(4-Bromophenyl)-3-(trifluoromethyl)-1H-pyrrol-2-yl]methoxy}-2,3-difluorophenyl)propan-1-ol]	87	709	282
COc1ccc(-n2ccc(C(F)(F)F)c2COc2ccc(CCC(=O)O)c(C)c2C)cc1 [Compound 24, 3-(4-{[1-(4-Methoxyphenyl)-3-(trifluoromethyl)-1H-pyrrol-2-yl]methoxy}-2,3-dimethylphenyl)propanoic acid]	308	931	227
COc1ccc(-n2ccc(C(F)(F)F)c2COc2ccc(CCCO)c(C)c2C)cc1 [Compound 25, 3-(4-{[1-(4-Methoxyphenyl)-3-(trifluoromethyl)-1H-pyrrol-2-yl]methoxy}-2,3-dimethylphenyl)propan-1-ol]	203	608	413
COc1ccc(-n2ccc(C(F)(F)F)c2COc2ccc(CCC(=O)O)c(F)c2F)cc1 [Compound 26, 3-(2,3-Difluoro-4-{[1-(4-methoxyphenyl)-3-(trifluoromethyl)-1H-pyrrol-2-yl]methoxy}phenyl)propanoic acid]	249	916	230
COc1ccc(-n2ccc(C(F)(F)F)c2COc2ccc(CCCO)c(F)c2F)cc1 [Compound 27, 3-(2,3-Difluoro-4-{[1-(4-methoxyphenyl)-3-(trifluoromethyl)-1H-pyrrol-2-yl]methoxy}phenyl)propan-1-ol]	46	218	54
COc1ccc(-n2ccc(C(F)(F)F)c2COc2c(F)cc(CCC(=O)O)cc2F)cc1 [Compound 28, 3-(3,5-Difluoro-4-{[1-(4-methoxyphenyl)-3-(trifluoromethyl)-1H-pyrrol-2-yl]methoxy}phenyl)propanoic acid]	221	641	108
OCCCc1cc(F)c(OCc2c(C(F)(F)F)ccn2-c2ccc(Br)cc2)c(F)c1 [Compound 30, 3-(4-[[1-(4-bromophenyl)-3-(trifluoromethyl)-1H-pyrrol-2-yl]methoxy]-3,5-difluorophenyl)propan-1-ol]	25	427	246

Source: patent US8912227B1, “Bicyclic pyrrole derivatives useful as agonists of GPR120” (Janssen Pharmaceutica NV, priority 2014, dated 2014)
